The subject of data set [1] is HMVEC (human neonatal microvascular endothelial cells). In words: Cell survival by clonogenic assay (colony count or MTT) in HMVEC. The conditions noted are these: for clonogenic toxicity to HMVEC after 1 hour exposure versus 6 hours: 1 and 6 hours exposure, washed, 3 more days, MTT assay (FIG. 5); for clonogenic cytotoxicity, HMVEC, limited exposure: exposure limited to 2 hours, clonogenic cytotoxicity estimated at 5 days (FIG. 2A). As for the experimental part:
(§1) Cell culture. Four commercially available human cell lines were grown in the indicated media below in 5% CO2, 80% humidity and 37EC: • 1. HL60 human leukemic cells, a pro-apoptotic cell line—cultured in RPMI 1640 fortified with 10% fetal calf serum. • 2. K562 human leukemic cells, an apoptotic-resistant cell line—cultured in RPMI 1640 fortified with 10% fetal calf serum. • 3. Human neonatal microvascular endothelial cells (HMVEC)—cultured in medium 131+microvascular growth supplement (MVGS)+attachment factor (AF)=500 ml+25 ml (AF is added 2-3 ml/T-25 flask; all reagents supplied by Cascade Biologics, Inc., Portland, Oreg.). • 4. Human neonatal dermal fibroblasts (HDF)—cultured in medium 106+low serum growth supplement (LSGS)=500 ml+10 ml (Cascade Biologics, Inc.).
Cell survival by clonogenic assay. This assay is based on a description reported by Schweitzer et al. (Expt. Haematol. 21: 573-578, 1993) with slight modifications. […] After 5 days of incubation under the standard culture conditions stated above, colonies (>40 cells) were counted by an inverted light microscope or estimated by MTT assay. IC50 values were obtained from the fitted curves of percentage of the control versus the drug concentrations. […]
The combretastatins are a family of naturally occurring tubulin binding agents comprising an A-,B-,C- and D- series of structures (U.S. Pat. Nos. 4,940,726; 4,996,237; 5,409,953; and 5,569,786). […] The compounds were added to microcultures in DMSO (i.e <0.5%) and toxicity was evaluated by MTT assay after 5-7 days in culture. […]

Data set [2] relates to HDF (human neonatal dermal fibroblasts). In words: Cell survival by clonogenic assay (colony count or MTT) in HDF. The method, then:
as §1
Cell survival by clonogenic assay. This assay is based on a description reported by Schweitzer et al. (Expt. Haematol. 21: 573-578, 1993) with slight modifications. […] After 5 days of incubation under the standard culture conditions stated above, colonies (>40 cells) were counted by an inverted light microscope or estimated by MTT assay. IC50 values were obtained from the fitted curves of percentage of the control versus the drug concentrations.
Experiment 1. HLGO, K562, HDF, and HMVEC cells were either cultured in 96-well plates at the indicated concentrations (FIGS. 2A and 2B) for 5 days in the presence of A4 prodrug, or after 2 hours exposure the drug-containing media was removed, fresh media added, and the cells cultured for an additional 5 days. Clonogenic growth was recorded after 5 days incubation for all treatments.
Experiment 2. HMVEC and HDF were cultured in 96-well microtiter plates initially containing 800 cells/well. The cells were cultured for 1 hour in the presence of the indicated concentrations of A4 prodrug ∀1 unit of alkaline phosphatase. The medium was removed, the cells washed, and fresh medium added, and the cells were incubated for an additional 5 days. Clonogenic growth was then established by the MTT assay.
The combretastatins are a family of naturally occurring tubulin binding agents comprising an A-,B-,C- and D- series of structures (U.S. Pat. Nos. 4,940,726; 4,996,237; 5,409,953; and 5,569,786). […] The compounds were added to microcultures in DMSO (i.e <0.5%) and toxicity was evaluated by MTT assay after 5-7 days in culture.
All of the compounds were evaluated for toxicity after a one-hour exposure in microculture and assayed for cytotoxicity by MTT assay after an additional 5 days' incubation in culture.

Data set [3] relates to HL60 human leukemic cells. The experiment in a line: Cell survival by clonogenic assay in HL-60. It is filed as cell-based. From the text:
(§2) Cell survival by clonogenic assay.

The next data set has as its system ocular vessels. The experiment in a line: Ocular neovascularization induced by lipid hydroperoxide (LHP) in rabbit eyes. It is filed as in vivo. The conditions noted are these: i.v. 40 mg/kg once a day for five days, eyes examined seven days later. The method, then:
To simulate pathogenic ocular angiogenesis, ocular neovascularization was induced by administration of lipid hydroperoxide (LHP) by intra-corneal injection at a dosage of 30 μg to rabbit eyes. Seven to 14 days later, ocular vessels formed in the injected eyes due to LHP insult. The subjects were divided into two groups; those of one group were given combretastatin A4 disodium phosphate by intravenous administration at a dosage of 40 mg/kg once a day for five days, while a vehicle without combretastatin A4 disodium phosphate was administered to the other group by i.v. administration as a dosage of water for the same time period. The eyes of both groups were examined seven days later.

Data set [4] concerns K562 human leukemic cells. The experiment in a line: Cell survival by clonogenic assay in K562. The conditions noted are these: 5 days exposure (FIG. 2B); read-out: IC50 clonogenic cytotoxicity, K562. The format is cell-based.
From the text: as §2

Where [5] appears, read: read-out: IC50 clonogenic toxicity values, HMVEC, compounds added in DMSO (<0.5%), MTT assay after 5-7 days in culture.
Where [6] appears, read: read-out: IC50 values HMVEC, one-hour exposure, MTT assay after additional 5 days' incubation.
Setting [7] is: read-out: IC50 clonogenic toxicity values, HDF, compounds added in DMSO (<0.5%), MTT assay after 5-7 days in culture.
[8] abbreviates: read-out: IC50 values HDF, one-hour exposure, MTT assay after additional 5 days' incubation.
The mark [9] stands for this setting: compounds added in DMSO (<0.5%), MTT assay after 5-7 days in culture, read-out: IC50 clonogenic toxicity values, HL-60.

pIC50: −log10 of the molar value. Read-outs that look alike come from different tables or passages of the source.

Turning to `COc1ccc(/C=C\c2cc(OC)c(OC)c(OC)c2)c(O)c1O` [Combretastatin A1], the “clonogenic toxicity to HMVEC after 1 hour exposure versus 6 hours” value in data set [1] is reported as “did not induce maximum toxicity”. The pIC50 is 6.30 in data set [1] (setting [5]), 4.82 to 5.00 in data set [1] (setting [6]), 7.70 in data set [2] (setting [7]) and 6.00 to 6.30 in data set [2] (setting [8]).

Turning to `COc1ccc(/C=C\c2cc(OC)c3c(c2)OCO3)cc1O` [Combretastatin A2, reference compound], the pIC50 in data set [1] (setting [5]) was 7.40 to 7.52; in data set [2] (setting [7]) it was 7.46 to 7.60; in data set [3] (setting [9]), 7.82.

Turning to `COc1ccc(/C=C\c2cc(O)c(OC)c(OC)c2)cc1O` [Combretastatin A3, reference compound], the results for the pIC50 in data set [1] (setting [5]), in data set [2] (setting [7]) and in data set [3] (setting [9]) were below 7.92, 8.00 to 8.10 and 8.30, respectively.

Consider `COc1ccc(/C=C\c2cc(OC)c(OC)c(OC)c2)cc1OP(=O)([O-])[O-].[Na+].[Na+]` [Combretastatin A4 Na2PO4, combretastatin A4 disodium phosphate], for which the “clonogenic cytotoxicity, HMVEC, limited exposure” value was “only HMVEC showed IC50 cytotoxicity” in data set [1] and “quite sensitive” in data set [1] (listed as A4 prodrug). In addition, the negative logarithm of the IC50 (pIC50) in data set [1] (read-out: IC50 clonogenic cytotoxicity, HMVEC, 5 days exposure (FIG. 2B)) is 8.60 to 8.82; in data set [1] (setting [6]), 6.82 to 7.12; in data set [2] (read-out: IC50 clonogenic cytotoxicity, HDF, 5 days exposure (FIG. 2B)), 8.60 to 8.82; in data set [2] (setting [8]) it was below 6.30; in data set [3] (5 days exposure (FIG. 2B), read-out: IC50 clonogenic cytotoxicity, HL60) it was 8.60 to 8.82; in data set [4] it was 8.60 to 8.82. The “cytotoxicity to HDF with added alkaline phosphatase, compared with HMVEC” value in data set [2] (1 hour exposure, 1 unit alkaline phosphatase added (FIG. 3)) is “the same for HMVEC and HDF”. In addition, the “cytotoxicity to HDF without added alkaline phosphatase” value in data set [2] (1 hour exposure, no added alkaline phosphatase (FIG. 3)) is “lack of cytotoxicity”. The reduction of vessels in the data set on ocular vessels is at least 40%.

For the compound `COc1ccc(/C=C\c2cc(OC)c(OC)c(OC)c2)cc1O` [Combretastatin A4], the negative-log IC50 (pIC50) in data set [1] (setting [5]) was 8.70 to 9.00; in data set [1] (setting [6]), 6.82 to 7.12; in data set [2] (setting [7]), 8.70 to 9.00; in data set [2] (setting [8]), 7.30; in data set [3] (setting [9]) it was 8.70 to 9.00.

On to `COc1ccc(CCc2cc(OC)c(OC)c(OC)c2)c(O)c1O` [Combretastatin B1, reference compound], for which the negative logarithm of the IC50 (pIC50) in data set [1] (setting [5]) is 6.52 to 6.70; in data set [2] (setting [7]), 6.52 to 6.70; in data set [3] (setting [9]), 6.30.

Consider `COc1ccc(CCc2cc(O)c(OC)c(OC)c2)cc1O` [Combretastatin B2, reference compound], for which the pIC50 in data set [1] (setting [5]) was 6.00 to 6.10; in data set [2] (setting [7]), 5.96; in data set [3] (setting [9]) it was 6.90.

`O=C1N[C@H]2[C@H](O)[C@H](O)[C@@H](O)[C@H](O)[C@@H]2c2cc3c(c(O)c21)OCO3` [Pancratistatin]: the pIC50 in data set [1] (Homo sapiens, HMVEC, read-out: IC50 values HMVEC) was 4.60 to 4.70; in data set [2] (Homo sapiens, Fibroblast, read-out: IC50 values HDF), 4.70.

Turning to `CC(=O)O[C@H]1C(=O)[C@@]2(C)[C@H]([C@H](OC(=O)c3ccccc3)[C@]3(O)C[C@H](OC(=O)[C@H](O)[C@@H](NC(=O)c4ccccc4)c4ccccc4)C(C)=C1C3(C)C)[C@]1(OC(C)=O)CO[C@@H]1C[C@@H]2O` [taxol, reference compound], the “clonogenic toxicity to HMVEC after 1 hour exposure versus 6 hours” value in data set [1] is listed as “did not induce maximum toxicity”.

For `CC(=O)O[C@@]12CO[C@@H]1C[C@H](O)[C@@]1(C)C(=O)[C@H](O)C3=C(C)[C@@H](OC(=O)[C@H](O)[C@@H](NC(=O)OC(C)(C)C)c4ccccc4)C[C@@](O)([C@@H](OC(=O)c4ccccc4)[C@H]21)C3(C)C` [taxotere, reference compound], the “clonogenic toxicity to HMVEC after 1 hour exposure versus 6 hours” value in data set [1] is listed as “did not induce maximum toxicity”.

On to “Amino Combretastatin A4 Phosphoroamidate”, for which the figures for the pIC50 in data set [1] (setting [6]) and in data set [2] (setting [8]) were 5.00 to 5.10 and 4.70 to 4.82, respectively.

As for Combretastatin A1 Na2PO4, the pIC50 in data set [1] (setting [6]) is 4.82 to 5.00; in data set [2] (setting [8]), 5.00 to 5.30.

Combretastatin A1 Nicotinamide PO4: the results for the pIC50 in data set [1] (setting [6]) and in data set [2] (setting [8]) were 4.82 to 5.00 and below 5.00, respectively.

On to Combretastatin A1 Piperazine PO4, for which the figures for the pIC50 in data set [1] (setting [6]) and in data set [2] (setting [8]) were 4.82 to 5.00 and 5.70 to 6.00, respectively.

On to Pancratistatin Na2PO4, for which the pIC50 is 4.60 to 4.70 in data set [1] (setting [6]) and 4.10 to 4.22 in data set [2] (setting [8]).

In general, pIC50 refers to −log10 of the IC50, conventionally taken in molar units.
